Like-named read-outs stand apart in the source and are kept apart here.
Legend:
CYP1A2 [1] = test: CYP selective diagnostic inhibition studies in HLM, furafylline; type: in vitro ADME, human; settings: furafylline 10 µmol/L
Method: Reactions were carried out in triplicate in 96 well plates. Each reaction was measured at 2 time points, that is at 0 and 30 minutes. […] Furafylline, KTZ, ticlopidine, and quinidine were used as diagnostic inhibitors for CYP 1A2, 3A4/5, 2C19 and 2D6, respectively. The reactions were initiated by addition of NADPH after a pre‐incubation of 5 minutes at 37°C. All reactions were terminated by the addition of 150 µL ice‐cold ACN. Internal standard (0.2 µmol/L DPZ) was added to ACN prior to termination of the assay. This was followed by centrifugation at 4500 g for 20 minutes. An aliquot (50 µL) supernatant was collected and 5 µL was injected and analyzed by liquid chromatography/tandem mass spectrometry (LC/MS/MS). The percent effect of each inhibitor was the estimated contribution of the inhibited CYP calculated using the relationship below: %contribution=amount remaining with inhibitor‐amount remaining without inhibitor/amount remaining without inhibitor×100.

[2] = Simcyp prediction of total hepatic clearance; set-up: species or system human
Method: The clearance of the incubation mixture was expressed as μL/min/pmol for rCYP.
The well‐stirred model was used to estimate the hepatic clearance (CLH) due to metabolism.

[3] = PZQ-ketoconazole DDI pharmacokinetic study in healthy volunteers; type: in vivo, human; settings: for AUC(0-inf) / AUC / CL/F / k el / half-life / Tmax / Vd/F: male, human, plasma
Method: Plasma samples were obtained from the AiBST biobank. […] Each participant served as their own control. Each participant provided written informed consent to take part in the study and the study was carried out according to Helsinki Declaration of 1975, as revised in 2008. The study was approved by the Medical Research Council of Zimbabwe (MRCZ) and the Medicines Controls Authority of Zimbabwe (MCAZ). […] The samples were vortexed for 30 seconds and left under gentle agitation for 25 minutes. […] From the supernatant, 20 μL was injected onto the chiral HPLC system for analysis. […] Detection was done using a UV diode array detector at 210 nm. […] The data were gathered and processed using Agilent OpenLab CDS for Chemstation software version 1.9. Linear calibration curves were plotted as concentration vs peak area ratio for analyte to IS with no weighting. […] The pharmacokinetic (PK) analysis was performed using the WinNonlin program, version 8.2 (Pharsight Corp). […] A non-compartmental approach was used for curve plotting and parameter calculation. The area under the curve (AUC) from time 0 to the last sampling time point (AUCt) was computed using the log-linear trapezoidal rule. The linear trapezoidal rule was used for the ascending part of the PK curve, while the log trapezoidal rule was used for the descending part of the graph. The AUC extrapolated to infinite time was calculated as AUC∞ = AUCt + Ct/K el where Ct is the concentration of the last sample taken and K el is the terminal elimination rate constant. The terminal elimination rate constant K el was determined by least squares regression analysis in the terminal phase of the semi log concentration-time curve. […] Statistical analysis was performed using the GraFit software (version 3.0, Erithacus Software Limited). […] Analysis of variance (ANOVA) was performed on the AUC and C max after transformation of the data to their natural logarithmic (ln) values.

CYP1A2 [4] = target: T1, CYP1A2 (Homo sapiens, UniProt P05177); test: in vitro; settings: recombinant CYP1A2, pH 7.4
T1 sequence (P05177 1-516): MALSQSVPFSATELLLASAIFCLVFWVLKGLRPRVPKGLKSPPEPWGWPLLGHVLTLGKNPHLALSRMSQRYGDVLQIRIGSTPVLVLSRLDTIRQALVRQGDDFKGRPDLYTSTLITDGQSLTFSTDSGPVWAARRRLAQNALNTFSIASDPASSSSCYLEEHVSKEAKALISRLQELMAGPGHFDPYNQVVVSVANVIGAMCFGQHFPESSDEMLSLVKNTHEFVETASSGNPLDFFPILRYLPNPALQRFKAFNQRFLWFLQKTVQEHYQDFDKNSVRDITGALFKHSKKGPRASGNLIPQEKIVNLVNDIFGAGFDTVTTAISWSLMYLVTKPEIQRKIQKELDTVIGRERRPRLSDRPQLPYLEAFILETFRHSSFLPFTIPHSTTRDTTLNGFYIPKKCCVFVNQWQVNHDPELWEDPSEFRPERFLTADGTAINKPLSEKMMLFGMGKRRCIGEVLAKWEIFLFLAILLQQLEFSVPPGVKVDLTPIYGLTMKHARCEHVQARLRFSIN

CYP2C19 = CYP2C19 (Homo sapiens, UniProt P33261); test: Qualitative substrate disappearance assay; type: in vitro ADME; set-up: purchased CYPEX CYP008; host or cells: Escherichia coli; settings: 20 pmols rCYP, 1.0 µmol/L substrate, 30 minutes
CYP2C19, sequence (P33261 whole entry): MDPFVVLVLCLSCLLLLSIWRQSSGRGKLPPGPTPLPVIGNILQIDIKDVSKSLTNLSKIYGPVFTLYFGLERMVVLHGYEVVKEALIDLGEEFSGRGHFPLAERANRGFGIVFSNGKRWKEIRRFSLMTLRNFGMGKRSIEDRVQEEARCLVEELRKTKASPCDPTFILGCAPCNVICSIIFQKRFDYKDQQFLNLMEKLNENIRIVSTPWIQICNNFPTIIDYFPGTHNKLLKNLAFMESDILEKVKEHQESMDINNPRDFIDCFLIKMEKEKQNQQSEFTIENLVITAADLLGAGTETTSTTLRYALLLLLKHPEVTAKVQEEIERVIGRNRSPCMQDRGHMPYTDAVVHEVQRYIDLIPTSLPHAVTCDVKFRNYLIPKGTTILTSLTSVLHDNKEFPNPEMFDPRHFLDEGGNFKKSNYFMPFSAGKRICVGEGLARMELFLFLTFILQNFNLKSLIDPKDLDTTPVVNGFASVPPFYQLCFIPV
Method: All reactions were performed in triplicate in 96‐well plates. […] The substrate was diluted to 40% ACN so that the percent organic component in the final solution was maintained at 1%. […] The reactions were initiated by addition of NADPH after a pre‐incubation of 5 minutes at 37°C. All reactions were terminated by the addition of 150 µL of ice‐cold ACN at either 0 minute (control) or 30 minutes (reaction). This was followed by centrifugation at 4500 g for 20 minutes. An aliquot (50 µL) supernatant was collected and 5 µL was injected and analyzed by liquid chromatography/tandem mass spectrometry (LC/MS/MS). Metabolism was signified qualitatively by loss of substrate from the media using the relationship: %remaining compound=[…]Peak area atT30min/Peak area atT0min×100.

[5] = PZQ + ketoconazole vs PZQ alone
[6] = PZQ + ketoconazole vs PZQ alone, listed as S‐Praziquantel
[7] = single oral 20 mg/kg PZQ alone, n = 9, listed as S‐Praziquantel, 20 mg/kg

- Contribution of CYP1A2 (CYP1A2 [1]): 27%
- Predicted total CLH (Simcyp) ([2]; metabolite formation assay): 10.144 mL/min/kg
- Predicted total CLH (Simcyp) ([2]; substrate depletion assay): 6.265 mL/min/kg
- Clearance/F, treatment mean (SD) ([3]; 20 mg/kg PZQ plus 200 mg ketoconazole, n = 9): 211.5 (74.47) L/h
- AUCinf, difference observed % [3, 5]: 68%
- AUCt0‐tlast, difference observed % [3, 5]: 56.09%
- C max, difference observed % [3, 5]: 107.11%
- Clearance/F, difference observed % [3, 5]: −37.81%
- Half life, difference observed % [3, 5]: 31.52%
- AUCinf, difference observed % [3, 6]: 67.71%
- C max, difference observed % [3, 6]: 107.1%
- AUC(0-inf) ([3]; oral, 20 mg/kg, 20 mg/kg PZQ plus 200 mg ketoconazole, n = 9, read-out: AUCinf, treatment geo mean): 5960 ng·h/mL
- AUC(0-inf) ([3]; oral, 20 mg/kg, 20 mg/kg PZQ plus 200 mg ketoconazole, n = 9, read-out: AUCinf, treatment mean (SD)): 6460 ng·h/mL
- AUC ([3]; oral, 20 mg/kg, 20 mg/kg PZQ plus 200 mg ketoconazole, n = 9, read-out: AUCt0‐tlast, treatment geo mean): 4680 ng·h/mL
- AUC ([3]; oral, 20 mg/kg, 20 mg/kg PZQ plus 200 mg ketoconazole, n = 9, read-out: AUCt0‐tlast, treatment mean (SD)): 4910 ng·h/mL
- CL/F ([3]; oral, 20 mg/kg, 20 mg/kg PZQ plus 200 mg ketoconazole, n = 9, read-out: Clearance/F, treatment geo mean (converted)): 3340 mL/min
- CL/F ([3]; oral, 20 mg/kg, 20 mg/kg PZQ plus 200 mg ketoconazole, n = 9, read-out: Clearance/F, treatment mean (SD) (converted)): 3530 mL/min
- k el ([3]; oral, 20 mg/kg, 20 mg/kg PZQ plus 200 mg ketoconazole, n = 9, read-out: Elimination rate constant, treatment geo mean (converted)): 6.11e-05 s⁻¹
- k el ([3]; oral, 20 mg/kg, 20 mg/kg PZQ plus 200 mg ketoconazole, n = 9, read-out: Elimination rate constant, treatment mean (SD) (converted)): 6.94e-05 s⁻¹
- half-life ([3]; oral, 20 mg/kg, 20 mg/kg PZQ plus 200 mg ketoconazole, n = 9, read-out: Half life, treatment geo mean (converted)): 3.17 h
- half-life ([3]; oral, 20 mg/kg, 20 mg/kg PZQ plus 200 mg ketoconazole, n = 9, read-out: Half life, treatment mean (SD) (converted)): 3.63 h
- Tmax ([3]; oral, 20 mg/kg, 20 mg/kg PZQ plus 200 mg ketoconazole, n = 9, read-out: T max, treatment geo mean): 2.35 h
- Tmax ([3]; oral, 20 mg/kg, 20 mg/kg PZQ plus 200 mg ketoconazole, n = 9, read-out: T max, treatment mean (SD)): 2.44 h
- Vd/F ([3]; oral, 20 mg/kg, 20 mg/kg PZQ plus 200 mg ketoconazole, n = 9, read-out: V d/F, treatment geo mean): 915 L
- Vd/F ([3]; oral, 20 mg/kg, 20 mg/kg PZQ plus 200 mg ketoconazole, n = 9, read-out: V d/F, treatment mean (SD)): 967 L
- AUC ([3]; oral, 20 mg/kg, AUC, PZQ alone): 3850 ± 1430 ng·h/mL
- AUC ([3]; oral, 20 mg/kg, read-out: AUC from the in vivo pharmacokinetic study): 3300 ng·h/mL
- AUC ([3]; oral, AUC, PZQ + KTZ): 6460 ± 3100 ng·h/mL
- AUC(0-inf) ([3]; po, 20 mg/kg, single oral 20 mg/kg PZQ alone, n = 9, read-out: AUCinf, reference geo mean): 3610 ng·h/mL
- AUC(0-inf) ([3]; po, 20 mg/kg, single oral 20 mg/kg PZQ alone, n = 9, read-out: AUCinf, reference mean (SD)): 3850 ng·h/mL
- AUC ([3]; po, 20 mg/kg, single oral 20 mg/kg PZQ alone, n = 9, read-out: AUCt0‐tlast, reference geo mean): 2970 ng·h/mL
- AUC ([3]; po, 20 mg/kg, single oral 20 mg/kg PZQ alone, n = 9, read-out: AUCt0‐tlast, reference mean (SD)): 3150 ng·h/mL
- CL/F ([3]; po, 20 mg/kg, single oral 20 mg/kg PZQ alone, n = 9, read-out: Clearance/F, reference geo mean (converted)): 5480 mL/min
- CL/F ([3]; po, 20 mg/kg, single oral 20 mg/kg PZQ alone, n = 9, read-out: Clearance/F, reference mean (SD) (converted)): 5670 mL/min
- k el ([3]; po, 20 mg/kg, single oral 20 mg/kg PZQ alone, n = 9, read-out: Elimination rate constant, reference geo mean (converted)): 8.33e-05 s⁻¹
- k el ([3]; po, 20 mg/kg, single oral 20 mg/kg PZQ alone, n = 9, read-out: Elimination rate constant, reference mean (SD) (converted)): 0.0001 s⁻¹
- half-life ([3]; po, 20 mg/kg, single oral 20 mg/kg PZQ alone, n = 9, read-out: Half life, reference geo mean (converted)): 2.3 h
- half-life ([3]; po, 20 mg/kg, single oral 20 mg/kg PZQ alone, n = 9, read-out: Half life, reference mean (SD) (converted)): 2.76 h
- Tmax ([3]; po, 20 mg/kg, single oral 20 mg/kg PZQ alone, n = 9, read-out: T max, reference geo mean): 2.96 h
- Tmax ([3]; po, 20 mg/kg, single oral 20 mg/kg PZQ alone, n = 9, read-out: T max, reference mean (SD)): 3 h
- Vd/F ([3]; po, 20 mg/kg, single oral 20 mg/kg PZQ alone, n = 9, read-out: V d/F, reference geo mean): 1090 L
- Vd/F ([3]; po, 20 mg/kg, single oral 20 mg/kg PZQ alone, n = 9, read-out: V d/F, reference mean (SD)): 1200 L
- Clearance/F, reference mean (SD) ([3]; single oral 20 mg/kg PZQ alone, n = 9, 20 mg/kg): 340 ± 97 L/h
- C max, reference mean (SD) [3, 7]: 782.9 (171.7) ng/mL
- Clearance/F, reference mean (SD) [3, 7]: 340.1 (96.37) L/h
- half-life at 1 µmol/L (CYP1A2 [4]): 0.267 h
- Depletion of substrate by CYP2C19 (CYP2C19): complete depletion
SMILES: O=C(C1CCCCC1)N1CC(=O)N2CCc3ccccc3[C@H]2C1 [S‐PZQ, S‐Praziquantel]
